Consider 2 compounds from paper PMC4483166, “Structural Basis of Specific Recognition of Non-Reducing Terminal N-Acetylglucosamine by an Agrocybe aegerita Lectin” (PLoS ONE, 2015).

The target of assay [1] is T1, Agrocybe aegerita lectin 2 (AAL2) (Cyclocybe aegerita, UniProt H6CS64).
T1 construct: gene aal-2; recombinant AAL2 without any tag, expressed in E. coli BL21 (DE3); 407 amino acid residues
T1 sequence (H6CS64 1-407): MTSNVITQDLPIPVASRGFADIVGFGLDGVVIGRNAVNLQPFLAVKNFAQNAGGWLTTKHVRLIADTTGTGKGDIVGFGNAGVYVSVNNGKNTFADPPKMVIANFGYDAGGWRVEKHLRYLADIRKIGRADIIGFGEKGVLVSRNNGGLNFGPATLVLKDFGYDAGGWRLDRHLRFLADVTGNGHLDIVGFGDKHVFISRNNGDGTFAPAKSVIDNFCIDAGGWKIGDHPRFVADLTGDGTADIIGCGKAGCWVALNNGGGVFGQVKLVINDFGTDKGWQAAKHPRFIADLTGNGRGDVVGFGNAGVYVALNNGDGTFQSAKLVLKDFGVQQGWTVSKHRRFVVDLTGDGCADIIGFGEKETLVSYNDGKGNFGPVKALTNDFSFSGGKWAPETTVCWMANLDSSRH
The assay can be described thus: crystal structure of the complex ([…] Å) and SPR steady-state affinity. It counts as binding.

The target in assay [2] is T1, Agrocybe aegerita lectin 2 (AAL2). The description is as above. It is filed as binding. The source holds these as a separate data set.

Like-named read-outs stand apart in the source and are kept apart here.

Consider `CC(=O)N[C@H]1[C@H](O[C@H]2[C@@H](O)[C@@H](CO)O[C@@H](O[C@H]3[C@H](O)[C@@H](NC(C)=O)C(O)O[C@@H]3CO)[C@@H]2O)O[C@H](CO)[C@@H](O)[C@@H]1O` (some centres unmarked) [GlcNAcβ1-3Galβ1-4GlcNAc], for which the affinity in assay [1], expressed as Kd, was 41.7 µM.

Consider `CC(=O)N[C@@H]1[C@@H](O)[C@H](O)[C@@H](CO)O[C@H]1O` [GlcNAc], for which the Kd (as a rule, the constant that tells how readily two partners part at equilibrium) in assay [2] came to 28.3 µM.
